The results in this text go back to ChEMBL document CHEMBL3352681, “A cyclic GB virus C derived peptide with anti-HIV-1 activity targets the fusion peptide of HIV-1” (Eur J Med Chem, 2014).

In data set [1] the test system is Human immunodeficiency virus 1. The experiment in a line: Binding affinity to biotin-labeled HIV1 fusion protein using 5 uM compound immobilized on microtiter plates by ELISA method. Background: In an ELISA, binding on a coated surface is turned into a signal by an enzyme label.
Data set [2] relates to Human immunodeficiency virus 1. The experiment in a line: Binding affinity to biotin-labeled HIV1 fusion protein using compound immobilized on microtiter plates by ELISA method.
Data set [3] concerns Human immunodeficiency virus 1. The experiment in a line: Inhibition of biotin-labeled HIV1 fusion protein binding to immobilized E1P8cyc peptide by ELISA method.
Data set [4] concerns Human immunodeficiency virus 1. The experiment in a line: Binding affinity to [W8]HIV1 fusion protein assessed as mole fraction partition coefficients in POPG liposomes by fluorescence assay. The conditions noted are these: Microsome.
For data set [5], the system named is Human immunodeficiency virus 1. The data set is described as follows: Binding affinity to NBD-labeled HIV1 fusion protein in POPG LUVs at 0.0125 to 0.4 uM using Rho-labeled compound by FRET assay.
A further data set relates to Murine leukemia virus. The experiment in a line: Binding affinity to NBD-labeled MLV fusion protein in POPG LUVs at 0.0125 to 0.4 uM using Rho-labeled compound by FRET assay.
Data set [6] relates to Human immunodeficiency virus 1. The data set is described as follows: Binding affinity to HIV1 fusion protein in DPPG lipid monolayers at 5% by compression isotherms analysis.
Data set [7] deals with Human immunodeficiency virus 1. The experiment in a line: Binding affinity to HIV1 fusion protein in DPPG lipid monolayers assessed as reduction in fusion protein-induced lipid layer phase transition at 5% by fluorescence microscopy.
The test system of data set [8] is Human immunodeficiency virus 1. The data set is described as follows: Inhibition of fusogenic capacity of HIV1 fusion protein in POPG LUVs assessed as reduction in fusion protein-induced vesicular permeabilization process at compound/fusion protein ratio of 20 by ANTS/DPX assay.
The target of data set [9] is T1, Melittin (Apis mellifera) (UniProt P01501).
T1 sequence (whole entry): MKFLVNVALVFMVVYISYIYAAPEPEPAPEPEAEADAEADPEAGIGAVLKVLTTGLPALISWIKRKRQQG
The experiment in a line: Binding affinity to bee venom melittin in POPG LUVs assessed as reduction in melittin-induced vesicular permeabilization process at compound/melittin ratio of 10 by ANTS/DPX assay.

In data set [10] the test system is Human immunodeficiency virus 1. The experiment in a line: Inhibition of fusogenic capacity of HIV1 fusion protein in rabbit RBCs assessed as reduction in fusion protein-induced hemolsysis at 1 to 100 uM after 60 mins.
The nature of data set [11]: Toxicity against rabbit RBCs assessed as induction of hemolysis after 60 mins. To be noted: erythrocyte, 1 h. The format is cell-based, Oryctolagus cuniculus.
In data set [12] the test system is Human immunodeficiency virus 1. The data set is described as follows: Binding affinity to HIV1 fusion protein in POPG vesicles assessed as induction of conformational changes infusion secondary structure by CD spectroscopy.
Data set [13] deals with Human immunodeficiency virus 1. The experiment in a line: Binding affinity to HIV1 fusion protein in PLGA nanoparticles assessed as protein-protein interactions by STD-NMR spectroscopy.
The test system of data set [14] is Human immunodeficiency virus 1. The experiment in a line: Antiviral activity against HIV1 NL4-3 in cell based assay. In kind it is functional, organism-based. The conditions noted are these: Human immunodeficiency virus 1, NL4-3.
Data set [15] deals with Human immunodeficiency virus 1. The data set is described as follows: Inhibition of fusogenic capacity of HIV1 fusion protein in rabbit RBCs assessed as reduction in fusion protein-induced hemolsysis at 10 to 1000 uM after 60 mins.
For data set [16], the system named is Human immunodeficiency virus 1. The experiment in a line: Antiviral activity against HIV1 NL4-3 infected in TZM-bl cells assessed as inhibition of viral replication. The format is functional, organism-based.
Data set [17] concerns HeLa. The experiment in a line: Inhibition of HIV1 fusion protein assessed as inhibition of syncytium formation between HeLa cells expressing HIV-1 envelope protein and TZM-bl cells expressing human CD4 receptor. In kind it is cell-based. The conditions noted are these: Human immunodeficiency virus 1.
Data set [18] has as its system HeLa. The data set is described as follows: Inhibition of HIV1 fusion protein assessed as inhibition of syncytium formation between HeLa cells expressing HIV-1 envelope protein and TZM-bl cells expressing human CXCR4 receptor. The format is cell-based. To be noted: Human immunodeficiency virus 1.
The subject of data set [19] is HeLa. The experiment in a line: Inhibition of HIV1 fusion protein assessed as inhibition of syncytium formation between HeLa cells expressing HIV-1 envelope protein and TZM-bl cells expressing human CCR5 receptor. In kind it is cell-based. The conditions noted are these: Human immunodeficiency virus 1.

Calls of active or inactive are those of the source. The calls are words filed in the database; no cut-off is given here. Peptide text beside a SMILES is read from it.

The term IC50 denotes the concentration that gives 50% inhibition.

Regarding `CC[C@H](C)[C@H](NC(=O)[C@H](CC(=O)O)NC(=O)[C@H](CCC(=O)O)NC(=O)[C@@H]1CCCN1C(=O)[C@H](C)N)C(=O)NCC(=O)N[C@@H](Cc1ccccc1)C(=O)N[C@H]1CSSC[C@@H](C(=O)N[C@@H](CC(C)C)C(=O)N[C@H](C(=O)N[C@@H](C)C(=O)N[C@@H](CC(C)C)C(=O)NCC(=O)O)C(C)C)NC(=O)CNC(=O)CNC(=O)[C@H](CCC(=O)O)NC(=O)[C@H](CC(C)C)NC1=O` (HELM PEPTIDE1{A.P.E.D.I.G.F.C.L.E.G.G.C.L.V.A.L.G}$PEPTIDE1,PEPTIDE1,8:R3-13:R3$$$V2.0), the result in data set [1], in [3], in data set [5], in data set [6], in [7] and in data set [12] was Active. Moreover, the result in [13] was Active. In addition, the Activity entry in data set [2] was “Dose-dependent effect”; in [11] it was “Non-toxic”. The K (mole fraction) in data set [4] came out at 580000. The result (with Murine leukemia virus; in [9]) was inactive. Besides, the Imax in data set [8] was 40%. Further, the inhibition entry in data set [10] was “Dose-dependent effect”. Moreover, the half-maximal inhibitory concentration (IC50) in data set [14] came out at 7.8 µM.

Turning to `CC[C@H](C)[C@H](NC(=O)[C@H](CC(=O)O)NC(=O)[C@H](CCC(=O)O)NC(=O)[C@@H]1CCCN1C(=O)[C@H](C)N)C(=O)NCC(=O)N[C@@H](Cc1ccccc1)C(=O)N[C@@H](CS)C(=O)N[C@@H](CC(C)C)C(=O)N[C@@H](CCC(=O)O)C(=O)NCC(=O)NCC(=O)N[C@@H](CS)C(=O)N[C@@H](CC(C)C)C(=O)N[C@H](C(=O)N[C@@H](C)C(=O)N[C@@H](CC(C)C)C(=O)NCC(=O)O)C(C)C` (H-APEDIGFCLEGGCLVALG-OH), the outcome in [1] and in data set [13] was inactive. For the same compound, the K (mole fraction) in data set [4] came out at 730000. Moreover, the inhibition result in data set [8] and in data set [15] was “Active” throughout. Moreover, the outcome in data set [12] was Active.

With H-LEAIPCSIPPEFLFGKPFVF-OH, the outcome in data set [16], in data set [1], in data set [5], in data set [6], in data set [7] and in data set [12] was Active. For the same compound, the inhibition result (with HeLa [17]; with HeLa [18]; with HeLa [19]; in data set [10]) was “Active” throughout. Also, in [11], the Activity result is on record as “Non-toxic”. In addition, the result in data set [13] was inactive.

In the case of H-SGVLTVGVALTRRVYPVP-OH, the result in [16], in [1], in data set [3] and in data set [12] was inactive. Further, the inhibition result (in the data set with HeLa [17]; with HeLa [18]; in the data set with HeLa [19]; in data set [8]; in data set [15]) was “inactive” each time.
